Test results: BindingDB's records for doi:10.1016/0960-894X(95)00287-4 (1995)

What was measured:
[1] = Inhibitory activity against Opioid receptor kappa1 binding to bovine striatal membrane
[2] = Inhibitory activity against Opioid receptor delta 1 binding to bovine striatal membrane

Structure (SMILES) | IC50 [1] [nM] | IC50 [2] [nM]
C[C@@]12Oc3c(O)ccc4c3[C@@]13CCN(CC1CC1)[C@H](C4)[C@]3(NC(=O)CSSCC(=O)N[C@@]13CCC(=O)[C@]4(C)Oc5c(O)ccc6c5[C@@]41CCN(CC1CC1)[C@@H]3C6)CCC2=O | 7.7 | 5.3
CN1CC[C@]23c4c5ccc(O)c4O[C@@]2(C)C(=O)CC[C@@]3(NC(=O)CSSCC(=O)N[C@@]23CCC(=O)[C@]4(C)Oc6c(O)ccc7c6[C@@]42CCN(C)C3C7)C1C5 [MET-TAMO and N-CPM-MET-TAMO analogue] | 89 | 52
